Where two headings read alike, the source gives them in different places.
Assays:
[1] = biological target: His-tagged KRAS G12D protein (Homo sapiens (Human), UniProt P01116, G12D); test: KRAS G12D TR-FRET Assay; format: binding
Outline: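 His-tagged KRAS G12D (diluted to 20 nM in pH 7.4 HEPES buffer with 10 mM MgCl2 and 10 μM GDP) was preincubated with titrated compound for 30 min at room temperature. Biotinylated KRPep-2d peptide (diluted to 20 nM) was then added for 1 h, and displacement was monitored by TR-FRET.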

[2] = biological target: GDP-bound KRAS protein (aa 1-169), containing both G12D and C118A amino acid substitutions (Homo sapiens (Human), UniProt P01116, C118A/G12D); test: KRAS G12D Coupled Nucleotide Exchange Assay; format: biochemical
GDP-bound KRAS protein (aa 1-169), containing both G12D and C118A amino acid substitutions, sequence (P01116 other isoform, or with tags, fused parts or gaps G12D/C118A): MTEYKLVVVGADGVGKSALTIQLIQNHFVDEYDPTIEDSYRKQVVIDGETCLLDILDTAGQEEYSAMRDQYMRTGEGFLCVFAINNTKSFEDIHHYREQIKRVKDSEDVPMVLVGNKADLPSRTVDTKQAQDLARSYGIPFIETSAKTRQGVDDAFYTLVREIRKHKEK

[3] = test system: Phosphorylation of ERK1/2 in AsPC-1 cells; test: Phospho-ERK1/2 MSD Assay; format: cell-based, human
Outline: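 Read-out: MSD electrochemiluminescent detection of phosphorylated ERK1/2 in whole-cell lysates, fitted to a 4-parameter logistic curve for IC50. Prior to lysis, AsPC-1 cells (25,000 per well) received a 2 h compound dose-response at 37 °C.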

[4] = test system: AsPC-1 cells; test: AsPC-1 CTG Assay (CellTiter-Glo cell viability); format: cell-based, human; conditions: first value of the cell, read-out: G12D/C/V Cell Proliferation CTG (72 h) AsPC-1
Outline: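 Human pancreatic AsPC-1 or colon SW620 cells in RPMI 1640 with 10% FBS, seeded overnight, then exposed to serially diluted compound for 72 h at 37 °C. CellTiter-Glo luminescence normalized to DMSO control; IC50 from a 4-parameter logistic model.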

[5] = test system: MIA PaCa-2 cells; test: MIA PaCa-2 CTG Assay (CellTiter-Glo cell viability); format: cell-based, human; conditions: second value of the cell
Outline: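 Human pancreatic carcinoma cells in RPMI 1640 with 10% FBS, seeded at 1.67E+04 cells/mL and left overnight, were treated with serially diluted compound for 72 h at 37° C, 5% CO2. Viability was read by CellTiter-Glo luminescence normalized to DMSO; IC50 came from a 4-parameter logistic fit.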

[6] = read-out: KRAS G12D Binding IC50
[7] = read-out: KRAS G12D Coupled Exchange IC50
[8] = Homo sapiens, ASPC1, 2 h, read-out: 2 h p-ERK (AsPC-1 cells), IC50
[9] = Homo sapiens, ASPC1, 72 h, AsPC-1, 72 h
[10] = Homo sapiens, Mia PaCa-2, 72 h, read-out: G12D/C/V Cell Proliferation CTG (72 h) Mia PaCa-2

His-tagged KRAS G12D protein, sequence (P01116 other isoform, or with tags, fused parts or gaps G12D): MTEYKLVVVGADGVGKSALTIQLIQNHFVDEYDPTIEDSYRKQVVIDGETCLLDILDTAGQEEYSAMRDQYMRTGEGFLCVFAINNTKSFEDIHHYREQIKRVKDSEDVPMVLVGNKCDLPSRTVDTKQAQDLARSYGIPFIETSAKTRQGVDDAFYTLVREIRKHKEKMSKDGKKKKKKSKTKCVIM

| SMILES | IC50 [1, 6] [µM] | IC50 [2, 7] [µM] | IC50 [3, 8] [µM] | IC50 [4, 9] [µM] | IC50 [5, 10] [µM] | IC50 ([1]; TR-FRET, read-out: KRAS G12D Binding) [µM] | IC50 ([2]; 2 hours compound pre-incubation, read-out: KRAS G12D Coupled Exchange) [µM] | IC50 ([3]; Homo sapiens, ASPC1, 2 h, read-out: 2 h p-ERK (AsPC-1 cells)) [µM] | IC50 ([4]; Homo sapiens, ASPC1, 72 h, AsPC-1 cells (G12D), 72 h) [µM] | IC50 ([5]; Homo sapiens, MIA PaCa-2 cells (G12C), 72 h, read-out: G12D/C/V Cell Proliferation CTG (72 h) MIA PaCa-2) [µM] | IC50 ([3]; 2 h, read-out: 2 h p-ERK (AsPC-1 cells), IC50) [µM] | IC50 ([4]; AsPC-1, 72 h) [µM] | IC50 ([5]; Mia PaCa-2, 72 h, read-out: G12D/C/V Cell Proliferation CTG (72 h) Mia PaCa-2) [µM] |
| --- | --- | --- | --- | --- | --- | --- | --- | --- | --- | --- | --- | --- | --- |
| O=C1OCCCc2c(Cl)cc3[nH]ncc3c2-c2ncc3c(nc(OC[C@@]45CCCN4C[C@H](F)C5)nc3c2F)N2CCCC[C@](CF)(C2)O1 [Example 340, (26R)-18-chloro-32-fluoro-26-(fluoromethyl)-4-(((2R,7aS)-2-fluorotetrahydro-1H-pyrrolo[1,2-a]pyrrol-7a(5H)-yl)methoxy)-23,25-dioxa-1,3,5,9,14,15-hexaazahexacyclo[24.4.1.1~6,10~.0~2,7~.0~11,19~.0~12,16~]dotriaconta-2,4,6,8,10(32),11,13,16,18-nonaen-24-one] | 0.004 | 0.001 | 0.0025 | 0.042 | 0.017 |  |  |  |  |  |  |  |  |
| Cc1cc2[nH]ncc2c2c1CCCCC(=O)O[C@@H]1COCCN(C1)c1nc(OC[C@@]34CCCN3C[C@H](F)C4)nc3c(F)c-2ncc13 [Example 83, (26S)-32-fluoro-4-(((2R,7aS)-2-fluorotetrahydro-1H-pyrrolo[1,2-a]pyrrol-7a(5H)-yl)methoxy)-18-methyl-25,28-dioxa-1,3,5,9,14,15-hexaazahexacyclo[24.4.1.1~6,10~.0~2,7~.0~11,19~.0~12,16~]dotriaconta-2,4,6,8,10(32),11,13,16,18-nonaen-24-one] | 0.004 | 0.003 | 0.015 | 0.16 | 0.04 |  |  |  |  |  |  |  |  |
| Fc1c2ncc3c(nc(OC[C@@]45CCCN4C[C@H](F)C5)nc13)N1CCCC[C@](F)(COCCCCc3c(Cl)cc4[nH]ncc4c3-2)C1 [Example 398, (26R)-18-chloro-26,32-difluoro-4-(((2R,7aS)-2-fluorotetrahydro-1H-pyrrolo[1,2-a]pyrrol-7a(5H)-yl)methoxy)-24-oxa-1,3,5,9,14,15-hexaazahexacyclo[24.4.1.1~6,10~.0~2,7~.0~11,19~.0~12,16~]dotriaconta-2,4,6,8,10(32),11,13,16,18-nonaene] |  |  |  |  |  | 0.004 | 0.002 | 0.0268 | 0.035 | 0.17 |  |  |  |
| CN1C[C@H](F)C[C@H]1COc1nc2c3cnc(c(F)c3n1)-c1c(c(Cl)cc3[nH]ncc13)CCCCC(=O)O[C@@H]1CCCCN2C1 [Example 85, (26R)-18-chloro-32-fluoro-4-(((2S,4R)-4-fluoro-1-methyl-2-pyrrolidinyl)methoxy)-25-oxa-1,3,5,9,14,15-hexaazahexacyclo[24.4.1.1~6,10~.0~2,7~.0~11,19~.0~12,16~]dotriaconta-2,4,6,8,10(32),11,13,16,18-nonaen-24-one] | 0.005 | 0.004 | 0.058 | 0.48 | 0.4 |  |  |  |  |  |  |  |  |
| CO[C@@H]1C[C@@H](COc2nc3c4cnc(c(F)c4n2)-c2c(c(Cl)cc4[nH]ncc24)CCOC(=O)OC2CC4(CCCN3C4)C2)N(C)C1 (mixture of isomers) [Example 307] | 0.004 | 0.002 | 0.012 | 0.134 | 0.062 |  |  |  |  |  |  |  |  |
| O=C1CC[C@@H]2C[C@@H]2c2c(Cl)cc3[nH]ncc3c2-c2ncc3c(nc(OC[C@@]45CCCN4C[C@H](F)C5)nc3c2F)N2CCC[C@H](C2)O1 [Example 127] | 0.004 | 0.003 |  |  |  |  |  |  |  |  | 0.013 | 0.23 | 0.12 |
| Cc1cc2[nH]ncc2c2c1CCCOC(=O)O[C@@H]1CCCCN(C1)c1nc(OC[C@@]34CCCN3C[C@H](F)C4)nc3c(F)c-2ncc13 [Example 98, (26R)-32-fluoro-4-(((2R,7aS)-2-fluorotetrahydro-1H-pyrrolo[1,2-a]pyrrol-7a(5H)-yl)methoxy)-18-methyl-23,25-dioxa-1,3,5,9,14,15-hexaazahexacyclo[24.4.1.1~6,10~.0~2,7~.0~11,19~.0~12,16~]dotriaconta-2,4,6,8,10(32),11,13,16,18-nonaen-24-one] | 0.004 | 0.002 | 0.017 | 0.14 | 0.05 |  |  |  |  |  |  |  |  |

More lines, now with the values ahead:

| IC50 [1, 6] [µM] | IC50 [2, 7] [µM] | IC50 [3, 8] [µM] | IC50 [4, 9] [µM] | IC50 [5, 10] [µM] | IC50 ([1]; TR-FRET, read-out: KRAS G12D Binding) [µM] | IC50 ([2]; 2 hours compound pre-incubation, read-out: KRAS G12D Coupled Exchange) [µM] | IC50 ([3]; Homo sapiens, ASPC1, 2 h, read-out: 2 h p-ERK (AsPC-1 cells)) [µM] | IC50 ([4]; Homo sapiens, ASPC1, 72 h, AsPC-1 cells (G12D), 72 h) [µM] | IC50 ([5]; Homo sapiens, MIA PaCa-2 cells (G12C), 72 h, read-out: G12D/C/V Cell Proliferation CTG (72 h) MIA PaCa-2) [µM] | IC50 ([3]; 2 h, read-out: 2 h p-ERK (AsPC-1 cells), IC50) [µM] | IC50 ([4]; AsPC-1, 72 h) [µM] | IC50 ([5]; Mia PaCa-2, 72 h, read-out: G12D/C/V Cell Proliferation CTG (72 h) Mia PaCa-2) [µM] | SMILES |
| --- | --- | --- | --- | --- | --- | --- | --- | --- | --- | --- | --- | --- | --- |
| 0.006 | 0.005 | 0.012 | 0.038 | 0.033 |  |  |  |  |  |  |  |  | O=C1OCCCc2c(Cl)cc3[nH]ncc3c2-c2ncc3c(nc(OC[C@H]4CC[C@@H]5COCCN54)nc3c2F)N2CCOC[C@H](C2)O1 [Example 185, (26S)-18-chloro-32-fluoro-4-((6R,8aR)-hexahydro-1H-pyrrolo[2,1-c][1,4]oxazin-6-ylmethoxy)-23,25,28-trioxa-1,3,5,9,14,15-hexaazahexacyclo[24.4.1.1~6,10~.0~2,7~.0~11,19~.0~12,16~]dotriaconta-2,4,6,8,10(32),11,13,16,18-nonaen-24-one] |
| 0.006 | 0.003 | 0.0411 | 0.494 | 0.113 |  |  |  |  |  |  |  |  | CN1CCC[C@H]1COc1nc2c3cnc(c(F)c3n1)-c1c(c(Cl)cc3[nH]ncc13)CCCOC(=O)O[C@@H]1CCCCN2C1 [Example 202, (26R)-18-chloro-32-fluoro-4-(((2S)-1-methyl-2-pyrrolidinyl)methoxy)-23,25-dioxa-1,3,5,9,14,15-hexaazahexacyclo[24.4.1.1~6,10~.0~2,7~.0~11,19~.0~12,16~]dotriaconta-2,4,6,8,10(32),11,13,16,18-nonaen-24-one] |
| 0.004 | 0.002 | 0.0335 | 0.08 | 0.121 |  |  |  |  |  |  |  |  | CN1CCC[C@H]1COc1nc2c3cnc(c(F)c3n1)-c1c(c(Cl)cc3[nH]ncc13)CCCOCC(=O)N1CC[C@@H]3CCN2C[C@@H]31 [Example 267, (29S,33R)-18-chloro-34-fluoro-4-(((2S)-1-methyl-2-pyrrolidinyl)methoxy)-23-oxa-1,3,5,9,14,15,26-heptaazaheptacyclo[24.5.2.1~6,10~.0~2,7~.0~11,19~.0~12,16~.0~29,33~]tetratriaconta-2,4,6(34),7,9,11,13,16,18-nonaen-25-one] |
| 0.014 | 0.007 | 0.206 | 0.402 | 0.53 |  |  |  |  |  |  |  |  | CN1[C@H](COc2nc3c4cnc(c(F)c4n2)-c2c(c(Cl)cc4[nH]ncc24)CCCOC(=O)O[C@@H]2COCCN3C2)C[C@H]2C[C@H]21 [Example 329, (26S)-18-chloro-32-fluoro-4-(((1R,3S,5R)-2-methyl-2-azabicyclo[3.1.0]hexan-3-yl)methoxy)-23,25,28-trioxa-1,3,5,9,14,15-hexaazahexacyclo[24.4.1.1~6,10~.0~2,7~.0~11,19~.0~12,16~]dotriaconta-2,4,6,8,10(32),11,13,16,18-nonaen-24-one] |
| 0.002 | 0.001 | 0.004 | 0.05 | 0.02 |  |  |  |  |  |  |  |  | O=C1CCCCc2c(Cl)cc3[nH]ncc3c2-c2ncc3c(nc(OC[C@@]45CCCN4C[C@H](F)C5)nc3c2F)N2CCOC[C@H](C2)O1 [Example 84, (26S)-18-chloro-32-fluoro-4-(((2R,7aS)-2-fluorotetrahydro-1H-pyrrolo[1,2-a]pyrrol-7a(5H)-yl)methoxy)-25,28-dioxa-1,3,5,9,14,15-hexaazahexacyclo[24.4.1.1~6,10~.0~2,7~.0~11,19~.0~12,16~]dotriaconta-2,4,6,8,10(32),11,13,16,18-nonaen-24-one] |
